In paper PMC9974481, “Structure of SpoT reveals evolutionary tuning of catalysis via conformational constraint” (Nature Chemical Biology, 2022):

Key:
[1] = biological target: T1, SpoTAb (full-length A. baumannii SpoT) (Acinetobacter baumannii, UniProt A0A0D5YCY1); assay: 3H-ppGpp hydrolysis, TLC and scintillation counting; assay type: biochemical; conditions: 1 mM MnCl2, 5 mM Mg2+, HEPES:Polymix pH 7.5, 37 °C, 10-600 μM substrate; labelled compound
T1 construct: gene ABUW_0309; full-length, domains HD, pseudo-SYNTH, Core, TGS, HEL, ZFD, RRM; pET28b His-TEV tag cleaved, E. coli BL21(DE3); monomer, theoretical 80 kDa; locus tag belongs to AB5075, expression gene amplified from AB19606; PDB entries not assigned in text (one is the metal-free NTD)

[2] = biological target: T1, SpoTAb (full-length A. baumannii SpoT); assay: X-ray crystallography, […] Å; assay type: binding; conditions: crystal soaked with 20 mM ppGpp at 4 °C; Mn2+ in hydrolase active site; PDB entry is 7QPR or 7QPS, not assigned in text

## Nc1nc2c(ncn2[C@@H]2O[C@H](COP(=O)(O)OP(=O)(O)O)[C@@H](OP(=O)(O)OP(=O)(O)O)[C@H]2O)c(=O)[nH]1 [ppGpp]
[1]
  KM: SpoTAb Michaelis constant (KM) and maximum reaction velocity (Vmax) of ^3H-ppGpp hydrolysis were determined
[2]
  X-ray crystallography, 2.5 Å: X-ray structure of full-length catalytically active SpoTAb bound to ppGpp
